Results published in US5652222A, “Selective inhibition of leukemic cell proliferation by bcr-abl antisense oligonucleotides” (Temple University-of The Commonwealth System of Higher …, priority 1993, dated 1997).
Values joined by “and” are separate entries in the source; they are usually repeats but may differ in a detail not shown here. Equal entries are not always repeated.

Legend:
[1] = system: bcr-abl transcripts; test: bcr-abl transcript in residual colonies (RT-PCR); format: cell-based, human; conditions: colonies arising from mixed cell populations of Example 3
Experimental: To provide unambiguous evidence of the elimination of Philadelphia chromosome blast cells, residual cells from Example 3 were evaluated for the expression of bcr-abl transcripts, since the levels of this transcript should reflect the number of surviving leukemia cells. For this purpose, total RNA was isolated from a pool of colonies from Example 3, and the levels of bcr-abl transcripts were evaluated. Levels of β2 -microglobulin transcript were also determined as a control. The β2 -microglobulin gene is expressed independent of cell cycle.
Accordingly, bcr-abl and β2 -microglobulin transcripts were reverse-transcribed and amplified in the presence of specific primers and Taq polymerase as described by Rappollee, Science 241, 708-712 (1988). The amplification products were separated on a 2% agarose gel and transferred to a nitrocellulose filter, which was hybridized with a synthetic 40-nucleotide c-abl fragment and a 40-nucleotide β2 -microglobulin fragment and labeled with [γ-^32 P]-ATP and polynucleotide kinase. The c-abl probe recognizes the amplified 257-nucleotide sequence of FIG. 1, which contains the L-6 type bcr-abl junction. The β2 -microglobulin probe recognizes the 195-nucleotide sequence contained within 5' and 3' β2 -microglobulin primers (Id.; Suggs et al., Proc. Natl. Acad. Sci. U.S.A. 78, 6613 (1981)).

[2] = system: BV173 cells; test: Clonogenic assay of tissues of leukemic SCID mice; format: in vivo, SCID mice (human leukemic cells)
Experimental: A second assay for leukemic disease comprised a clonogenic assay in semisolid medium. […] By contrast, BV173 cells formed numerous, rapidly growing colonies. To rule out the possibility that the presence of BV173 cells permitted the growth of murine progenitors, mixing experiments were carried out.
To determine whether synthetic phosphorothioate oligodeoxynucleotides targeted against the bcr-abl junction of […] cells would modify the disease process in SCID mice. SCID mice were injected with 10^6 BV173 cells. The mice then received 1 mg of sense (ATCAATAAGG AAGCCCTTCAGCG, SEQ ID NO:34) or antisense ([…] ATTGAT, SEQ ID NO:29) b2/a2 bcr-abl phosphorothioate oligodeoxynucleotides (pyrogen leven <1 Eu/mg; 0.2 ml in Iscove modified Dulbecco medium in 5-10 seconds) intravenously for each of 9 consecutive days, beginning either 7 or 21 days after introducing 10^6 BV173 cells. Control mice received the diluent (iscove's modified Dulbecco medium) only. These time points approximate distinct disease stages in humans.
10^5 cells were plated in duplicate in 35×10 mm tissue culture dishes (Nunc, Inc., Naperville, Ill.) in HCC-4230 medium (Terry Fox Lab., Vancouver, Canada) supplemented with 2.5 mM L-glutamine, and allowed to grow for 12 days. Plates were scanned with an inverted microscope and total colony number was determined. The results are shown in FIG. 9 (C, untreated mouse; S, sense-treated mouse, AS, antisense-treated mouse).

[3] = 1 mg/day i.v. x9 from day +7, killed 26 days after last treatment (6 weeks)
[4] = 1 mg/mouse/day x9 from day +21, 26 days after treatment (8 weeks)

Substance	bcr-abl transcript in RNA from colonies [1]	leukemic colonies, bone marrow and spleen [2, 3]	leukemic colonies, peripheral blood leukocytes [2, 3]	leukemic colonies, bone marrow ([2]; 1 mg/mouse/day i.v. x9 from day +7, killed 12 days after last treatment (4 weeks), untreated 353±52)	leukemic colonies, peripheral blood mononuclear cells ([2]; 1 mg/mouse/day x9 from day +21, 12 days after last treatment (6 weeks), untreated 11.0±8.5)	leukemic colonies, spleen ([2]; 1 mg/mouse/day x9 from day +21, 12 days after last treatment (6 weeks), untreated 80.5±12.0)	leukemic colonies, bone marrow ([2]; 1 mg/mouse/day x9 from day +21, 12 days after last treatment (6 weeks), untreated 575.5±83.8)	leukemic colonies, bone marrow [2, 4]	leukemic colonies, peripheral blood [2, 4]	leukemic colonies, spleen [2, 4]
SEQ ID NO:3: synthetic 18-mer GAAGGGCTTC TTCCTTAT specific for the 18-nucleotide target sequence of the L-6 bcr-abl junction (antisense GAAGGGCTTCTTCCTTAT; chemistry not given here)	No bcr-abl transcript was detected									
SEQ ID NO:34: phosphorothioate sense sequence ATCAATAAGGAAGCCCTTCAGCG (23-mer b2a2 sense) (sense ATCAATAAGGAAGCCCTTCAGCG; all phosphorothioate, sugars by position and methylation of C not given here)		numerous leukemic colonies	A few colonies	380±25 colonies	14.5±4.9 colonies	116.0±29.7 colonies	668.5±59.1 colonies	839.5±41.7 colonies	51.0±41.7 colonies and 51.0±14.1 colonies	548.5±128.0 colonies
